According to patent US20260144820A1, “ACTIVATION OF RESIDENT MEMORY T CELLS FOR CANCER IMMUNOTHERAPY” (priority 2015, published 2026):

What was measured:
[1] = system: virus-specific TRM within skin tumors; design: species or system mice; conditions: mouse, in vivo
[2] = system: VSV-Ova specific TRM; design: species or system mice; conditions: mouse, in vivo

Sequence: SIINFEKL
- recruitment of CD8 T cells and NK cells to tumors [1]: recruit CD8 T cells and NK cells to the tumors
- reactivation of virus-specific TRM within skin tumors [2]: can become reactivated
